Laboratory results taken from patent US20240366571A1, “MODULATORS OF SK4 POTASSIUM CHANNEL AND USES THEREOF” (Ramot at Tel-Aviv University Ltd., priority 2022, published 2024).
Entries after “also recorded” stand apart in the source; their conditions may differ.

What was measured:
[1] = target: T1, human SK1 (Homo sapiens, UniProt Q92952); assay: Whole-cell patch-clamp of SK1 currents in CHO cells; format: cell-based; details: 20 μM
T1 construct: expressed in transfected cells; host or cells: CHO cells
Experimental: (§1) Constructs: For CHO cell transfection, the following were cloned: human SK1, rat SK2, human SK3, and rat calmodulin into the pcDNA3 vector, human SK4 into pEGFP-C1 vector, and PIP4,5-kinase into an IRES-dsRed plasmid. The mutations were introduced using the PCR-based QuikChange™ site-directed mutagenesis (Stratagene®) and were verified by full sequencing of the entire plasmid vector.
(§2) Cell Culture and Transfection: Chinese hamster ovary (CHO) cells were grown in Dulbecco's modified Eagle's medium supplemented with 2 millimolar (mM) glutamine, 10% fetal calf serum, and antibiotics. In brief, 40,000 cells seeded on poly-L-lysine-coated glass coverslips (13 millimeter (mm) in diameter) in a 24-multiwell plate were transfected with 0.5 microgram (μg) pEGFP-SK4/0.5 μg mutant SK4, 1.2 μg dsRed-PIP4,5-kinase or with 1 μg SK1/SK2/SK3 together with pIRES-CD8 (0.3 μg) as a marker for transfection. Transfection was performed using TransIT-LT1 Transfection Reagent (Mirus Bio) according to the manufacturer's protocol. For electrophysiology, transfected cells were visualized approximately 40 hours after transfection with a Zeiss Axiovert 35 inverted florescence microscope.
Whole-cell patch-clamp recording: Voltage-clamp recordings were performed using the whole-cell configuration of the patch-clamp technique. Signals were amplified using an […] patch-clamp amplifier (Molecular Devices), sampled at 5 kHz and filtered at 2.4 kHz via a four pole Bessel low pass filter. Data were acquired using pClamp™ 10.5 software in conjunction with an Axon™ DigiData® 1440A interface (Molecular Devices). The patch pipettes were pulled from borosilicate glass (Harvard Apparatus) with a resistance of 3-5 megaohms (MΩ). The intracellular pipette solution contained 130 mM KCl, 5 mM EGTA, 10 mM HEPES, pH 7.3 (adjusted with KOH), and CaCl2 calculated for a final concentration of 1 μM free-Ca^2+, by MAXCHELATOR (WEBMAXC STANDARD) software, with sucrose added to adjust osmolarity to 290 mosM. […]

[2] = tested on: isolated rat hearts; assay: Atrial fibrillation induction by burst pacing with carbachol in isolated rat hearts
Experimental: Atrial Fibrillation induction in Sprague-Dawley rats: For evaluation of Tram-34 and BA6b9 on atrial fibrillation (AF) induction, a custom-made quadripolar electrode was inserted for simultaneous recording and pacing on the HRA. To increase susceptibility for reentry and atrial tachyarrhythmia, the cholinergic agonist carbachol was used. First, baseline AERP was measured under normal physiological conditions, and the measurement was repeated upon exposure to 0.3 μM carbachol, 0.3 μM carbachol+10 μM Tram-34 or 0.3 μM carbachol+10 μM BA6b9. Then, for AF induction, burst pacing was applied to the HRA under increasing pacing thresholds (2×, 3×, 4×, 5×, and 6× threshold). This protocol included two consecutive 5 second bursts at a cycle length of 20 milliseconds for each threshold. This protocol was tested under […] conditions: normal physiological conditions, 0.3 μM carbachol, 0.3 μM carbachol+10 μM Tram-34, or 0.3 μM carbachol+10 μM BA6b9. To determine AF susceptibility under each condition, an AFIS (AF induction score) ranking system was created, relying on the level of threshold intensity when AF induction was successful. Lower AF induction threshold means higher AFIS. The ranking was as follows: induction at 2×-diastolic threshold received the highest score of 5, at 3× the received score was 4, at 4× the received score was 3, at 5× the received score was 2, at 6× the received score was 1, and if no induction occurred it scored zero. For AF sustainability quantification, sustained AF was determined as lasting ≥5 minutes. Non-sustained AF received a score of zero and sustained AF received a score of 1.

[3] = target: T2, rat SK2 (Rattus norvegicus, UniProt P70604); assay: Whole-cell patch-clamp of SK2 currents in CHO cells; format: cell-based; details: 20 μM
T2 construct: expressed in transfected cells; host or cells: CHO cells
Experimental: as §1
as §2, with “Transfection was performed using TransIT-LT1 Transfection Reagent (Mirus Bio) according to the manufacturer's protocol. For electrophysiology, transfected cells were visualized approximately 40 hours after transfection with a Zeiss Axiovert 35 inverted florescence microscope.” left out
Whole-cell patch-clamp recording: Voltage-clamp recordings were performed using the whole-cell configuration of the patch-clamp technique. […] The intracellular pipette solution contained 130 mM KCl, 5 mM EGTA, 10 mM HEPES, pH 7.3 (adjusted with KOH), and CaCl2 calculated for a final concentration of 1 μM free-Ca^2+, by MAXCHELATOR (WEBMAXC STANDARD) software, with sucrose added to adjust osmolarity to 290 mosM. […]

[4] = target: T3, human SK4 (Homo sapiens, UniProt O15554); assay: Whole-cell patch-clamp of WT SK4 K+ currents in transfected CHO cells; format: cell-based
T3 construct: expressed in transfected cells; host or cells: CHO cells
Experimental: as §1, §2
Whole-cell patch-clamp recording: Voltage-clamp recordings were performed using the whole-cell configuration of the patch-clamp technique. Signals were amplified using an […] patch-clamp amplifier (Molecular Devices), sampled at 5 kHz and filtered at 2.4 kHz via a four pole Bessel low pass filter. Data were acquired using pClamp™ 10.5 software in conjunction with an Axon™ DigiData® 1440A interface (Molecular Devices). The patch pipettes were pulled from borosilicate glass (Harvard Apparatus) with a resistance of 3-5 megaohms (MΩ). The intracellular pipette solution contained 130 mM KCl, 5 mM EGTA, 10 mM HEPES, pH 7.3 (adjusted with KOH), and CaCl2 calculated for a final concentration of 1 μM free-Ca^2+, by MAXCHELATOR (WEBMAXC STANDARD) software, with sucrose added to adjust osmolarity to 290 mosM. The external solution (310 mosM) contained 140 mM NaCl, 4 mM KCl, 1.8 mM CaCl2, 1.2 mM MgCl2, 11 mM glucose, and 5.5 mM HEPES adjusted with NaOH to pH 7.3. CHO cells were held at −90 millivolt (mV) and SK4 K^+ currents were activated using a voltage ramp protocol from −100 mV to +60 mV for 150 milliseconds. Electrophysiological data analysis was performed using the Clampfit program (pClamp™ 10.5; Molecular Devices).
Some of the compounds were tested by comparing trace of WT SK4 channel currents in the absence and presence of 20 μM of the tested compound.

SK1 activity in comparison with control [1]: 118% | SK1 drug-to-control current ratio [1]: 1.18 | SK2 activity in comparison with control [3]: 134% | SK2 drug-to-control current ratio [3]: 1.34 | inhibition at 20 µM ([4]; CHO, 20 μM, whole-cell): 56% | SK4 K+ channel modulating activity ([4]; WT SK4 currents in absence and presence of 20 μM compound): inhibited; also recorded: Inhibitor
Compound: CCCCCCCn1c(=O)oc2ccccc21 [BA6b9, 3-heptylbenzo[d]oxazol-2(3H)-one]
effect on SK1 currents (representative trace) [1]: nearly nullified effect; also recorded: did not lead to modulation | reduction of AFIS ([2]; 10 μM + 0.3 μM carbachol vs carbachol alone): 48% | AFIS (AF induction score) ([2]; 10 μM + 0.3 μM carbachol, 3.1 with carbachol alone): 1.6 | sustained AF induction ([2]; 10 μM + 0.3 μM carbachol, 100% with carbachol alone): 70% | heart preparations in which AF sustainability was prevented ([2]; 10 μM, burst pacing): 30%
